Experimental data as given in PubChem BioAssay AID190 (DTP/NCI, 2004).
Toxic doses and inconclusive results are not listed.

Test system: AKR/Lw mice, AKR lymphoma ip, median survival T/C
Test: NCI In Vivo Anticancer Drug Screen. Data for tumor model Lymphoma AKR (Transplanted) (intraperitoneal) in AKR/Lw mice
Settings: endpoint: median survival time, higher = longer survival
Experimental: The antitumor activity of compounds was measured in mice bearing transplantable tumors. Survival or tumor size were measured and the results are expressed as the measurement made in the treated group (T) divided by the measurement made in the vehicle treated control group (C). The tumor model used in this assay is Lymphoma AKR (Transplanted) (intraperitoneal) in AKR/Lw mice

[1] = dose: 400.0 mg/kg/injection, schedule: Q01DX001 (ip), vehicle: Klucel (hydroxypropylcellulose) (HPC)
[2] = dose: 100.0 mg/kg/injection, schedule: Q01DX001 (ip), vehicle: saline
[3] = dose: 200.0 mg/kg/injection, schedule: Q01DX001 (ip), vehicle: saline
[4] = dose: 400.0 mg/kg/injection, schedule: Q01DX001 (ip), vehicle: saline
[5] = dose: 100.0 mg/kg/injection, schedule: Q01DX001 (ip), vehicle: Klucel (hydroxypropylcellulose) (HPC)
[6] = dose: 200.0 mg/kg/injection, schedule: Q01DX001 (ip), vehicle: Klucel (hydroxypropylcellulose) (HPC)

CCN(CC)CCOc1ccc2c(c1)C(=O)c1cc(OCCN(CC)CC)ccc1-2
T/C (dose: 2.5 mg/kg/injection, schedule: Q01DX001 (ip), vehicle: saline): 106 % of control
T/C (dose: 5.0 mg/kg/injection, schedule: Q01DX001 (ip), vehicle: saline): 106 % of control
T/C (dose: 10.0 mg/kg/injection, schedule: Q01DX001 (ip), vehicle: saline): 106 % of control
T/C (dose: 20.0 mg/kg/injection, schedule: Q01DX001 (ip), vehicle: saline): 100 % of control
T/C (dose: 25.0 mg/kg/injection, schedule: Q01DX007 (ip), vehicle: saline): 272 % of control
T/C (dose: 50.0 mg/kg/injection, schedule: Q01DX001 (ip), vehicle: saline): 102 % of control
T/C (dose: 50.0 mg/kg/injection, schedule: Q01DX007 (ip), vehicle: saline): 102 % of control

COc1ccc(N2C(=O)CC(Sc3ccccc3N)C2=O)cc1 (centres undefined)
T/C [1]: 87 % of control

Cc1cnc2c(=N)n(C(=O)C(F)(F)F)n(C)c2n1
T/C [2]: 89 % of control
T/C [3]: 100 % of control
T/C [4]: 92 % of control

COc1cc2c(c3c1c(=O)c1ccccc1n3C)C=CC(C)(C)O2
T/C (dose: 16.0 mg/kg/injection, schedule: Q01DX010 (ip), vehicle: Klucel (hydroxypropylcellulose) (HPC)): 106 % of control
T/C (dose: 31.25 mg/kg/injection, schedule: Q01DX010 (ip), vehicle: Klucel (hydroxypropylcellulose) (HPC)): 103 % of control
T/C (dose: 36.0 mg/kg/injection, schedule: Q03HX024 (ip), vehicle: Klucel (hydroxypropylcellulose) (HPC)): 120 % of control
T/C (dose: 62.5 mg/kg/injection, schedule: Q01DX010 (ip), vehicle: Klucel (hydroxypropylcellulose) (HPC)): 122 % of control
T/C (dose: 62.5 mg/kg/injection, schedule: Q03HX024 (ip), vehicle: Klucel (hydroxypropylcellulose) (HPC)): 115 % of control
T/C (dose: 125.0 mg/kg/injection, schedule: Q03HX024 (ip), vehicle: Klucel (hydroxypropylcellulose) (HPC)): 115 % of control
T/C (dose: 360.0 mg/kg/injection, schedule: Q04DX003 (ip), vehicle: Klucel (hydroxypropylcellulose) (HPC)): 122 % of control

NC(=O)C(Br)CBr (centres undefined)
T/C (dose: 25.0 mg/kg/injection, schedule: Q04DX003 (ip), vehicle: saline): 100 % of control
T/C (dose: 50.0 mg/kg/injection, schedule: Q04DX003 (ip), vehicle: saline): 122 % of control
T/C [2]: 108 % of control
T/C (dose: 100.0 mg/kg/injection, schedule: Q04DX003 (ip), vehicle: saline): 89 % of control
T/C [3]: 101 % of control

COc1ccc(/C=C2\CCC3C(=O)CCCC3(C)C2=O)cc1 (centres undefined)
T/C [2]: 90 % of control
T/C [3]: 100 % of control
T/C [4]: 97 % of control

COc1cc2c(cc1OC)C1CCN3CCCC3N1CC2 (centres undefined)
T/C [5]: 100 % of control

COc1cc2ccc(CCNCc3ccccc3)cc2cc1OC
T/C (dose: 25.0 mg/kg/injection, schedule: Q04DX003 (ip), vehicle: saline sonified): 92 % of control
T/C (dose: 50.0 mg/kg/injection, schedule: Q04DX003 (ip), vehicle: saline sonified): 95 % of control
T/C [2]: 116 % of control
T/C (dose: 100.0 mg/kg/injection, schedule: Q04DX003 (ip), vehicle: saline sonified): 92 % of control

Cc1cc(NS(=O)(=O)c2ccc(N)cc2)no1
T/C [2]: 110 % of control
T/C (dose: 100.0 mg/kg/injection, schedule: Q04DX003 (ip), vehicle: other): 95 % of control
T/C [3]: 103 % of control
T/C (dose: 200.0 mg/kg/injection, schedule: Q04DX003 (ip), vehicle: other): 95 % of control
T/C [4]: 96 % of control
T/C (dose: 400.0 mg/kg/injection, schedule: Q04DX003 (ip), vehicle: other): 95 % of control

COc1ccc(COC(=O)CN2C(=O)c3ccccc3C2=O)cc1
T/C [5]: 97 % of control
T/C [6]: 100 % of control
T/C [1]: 113 % of control

O=c1cc(-c2ccccc2)nc(Nc2nc3ccc([N+](=O)[O-])cc3[nH]2)[nH]1
T/C [5]: 96 % of control
T/C [6]: 110 % of control
T/C [1]: 96 % of control

CN(C)CCCNC(=O)Nc1ccccc1
T/C [5]: 103 % of control
T/C [6]: 93 % of control

Cc1ccc(N2C(=O)CC(Sc3ccccc3N)C2=O)cc1 (centres undefined)
T/C (dose: 50.0 mg/kg/injection, schedule: Q04DX003 (ip), vehicle: Klucel (hydroxypropylcellulose) (HPC)): 100 % of control
T/C [5]: 100 % of control
T/C (dose: 100.0 mg/kg/injection, schedule: Q04DX003 (ip), vehicle: Klucel (hydroxypropylcellulose) (HPC)): 90 % of control
T/C (dose: 200.0 mg/kg/injection, schedule: Q04DX003 (ip), vehicle: Klucel (hydroxypropylcellulose) (HPC)): 90 % of control

CC(=O)C1CCC2C3CCC4CC(O)CCC4(C)C3CCC12C#N (centres undefined)
T/C (dose: 100.0 mg/kg/injection, schedule: Q01DX001 (sc), vehicle: steriod suspending solution): 104 % of control
T/C (dose: 200.0 mg/kg/injection, schedule: Q01DX001 (sc), vehicle: steriod suspending solution): 106 % of control
T/C (dose: 400.0 mg/kg/injection, schedule: Q01DX001 (sc), vehicle: steriod suspending solution): 95 % of control

CC(C)OC(=O)Oc1cccc2c1C(=O)c1ccccc1C2=O
T/C [5]: 95 % of control
T/C [6]: 91 % of control
